According to ChEMBL document CHEMBL6083289, “Deciphering the Therapeutic Potential of Novel Pentyloxyamide-Based Class I, IIb HDAC Inhibitors against Therapy-Resistant Leukemia” (J Med Chem, 2024):

Columns and labels:
[1] = target: T1, Protein deacetylase HDAC6 (Homo sapiens, UniProt Q9UBN7); test: Inhibition of human recombinant HDAC6 using RHKKAc as fluorogenic substrate incubated for 90 mins by fluorescence based analysis
T1 sequence (Q9UBN7 whole entry): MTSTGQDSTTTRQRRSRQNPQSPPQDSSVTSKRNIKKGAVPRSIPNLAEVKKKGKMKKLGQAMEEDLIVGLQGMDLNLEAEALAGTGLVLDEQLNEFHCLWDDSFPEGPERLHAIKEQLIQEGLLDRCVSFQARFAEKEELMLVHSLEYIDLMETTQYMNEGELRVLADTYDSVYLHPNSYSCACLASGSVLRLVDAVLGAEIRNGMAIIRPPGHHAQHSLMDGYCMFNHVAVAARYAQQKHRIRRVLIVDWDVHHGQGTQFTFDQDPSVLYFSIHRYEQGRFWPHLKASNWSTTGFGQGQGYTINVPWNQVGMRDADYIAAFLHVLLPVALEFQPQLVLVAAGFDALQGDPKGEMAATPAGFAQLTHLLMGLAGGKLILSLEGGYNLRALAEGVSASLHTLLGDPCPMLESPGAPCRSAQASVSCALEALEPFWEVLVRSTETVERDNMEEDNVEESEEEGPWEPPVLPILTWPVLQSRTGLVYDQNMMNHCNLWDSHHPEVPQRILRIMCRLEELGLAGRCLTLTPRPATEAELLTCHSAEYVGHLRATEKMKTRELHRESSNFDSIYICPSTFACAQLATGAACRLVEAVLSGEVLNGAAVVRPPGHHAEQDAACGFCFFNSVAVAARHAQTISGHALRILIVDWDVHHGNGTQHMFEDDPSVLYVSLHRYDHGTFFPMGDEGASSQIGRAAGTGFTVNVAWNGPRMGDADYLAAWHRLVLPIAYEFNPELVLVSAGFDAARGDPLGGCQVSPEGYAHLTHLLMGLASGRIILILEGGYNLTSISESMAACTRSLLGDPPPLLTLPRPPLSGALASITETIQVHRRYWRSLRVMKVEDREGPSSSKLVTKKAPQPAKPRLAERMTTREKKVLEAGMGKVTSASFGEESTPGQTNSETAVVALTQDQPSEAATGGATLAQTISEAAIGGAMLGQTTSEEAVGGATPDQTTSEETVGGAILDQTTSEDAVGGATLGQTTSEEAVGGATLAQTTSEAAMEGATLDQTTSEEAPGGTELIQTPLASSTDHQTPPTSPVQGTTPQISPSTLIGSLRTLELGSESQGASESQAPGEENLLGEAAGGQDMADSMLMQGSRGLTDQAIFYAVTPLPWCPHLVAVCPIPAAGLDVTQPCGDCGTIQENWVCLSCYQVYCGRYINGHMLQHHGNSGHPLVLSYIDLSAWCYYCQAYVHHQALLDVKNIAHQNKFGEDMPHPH

Histone deacetylase 4 = Histone deacetylase 4 (Homo sapiens, UniProt P56524)
Description: Inhibition of human recombinant HDAC4 using Boc-Lys(trifluoroacetyl)-AMC) as fluorogenic substrate incubated for 90 mins by fluorescence based analysis

Histone deacetylase 8 = target: T2, Histone deacetylase 8 (Homo sapiens, UniProt Q9BY41)
T2 sequence (Q9BY41 whole entry): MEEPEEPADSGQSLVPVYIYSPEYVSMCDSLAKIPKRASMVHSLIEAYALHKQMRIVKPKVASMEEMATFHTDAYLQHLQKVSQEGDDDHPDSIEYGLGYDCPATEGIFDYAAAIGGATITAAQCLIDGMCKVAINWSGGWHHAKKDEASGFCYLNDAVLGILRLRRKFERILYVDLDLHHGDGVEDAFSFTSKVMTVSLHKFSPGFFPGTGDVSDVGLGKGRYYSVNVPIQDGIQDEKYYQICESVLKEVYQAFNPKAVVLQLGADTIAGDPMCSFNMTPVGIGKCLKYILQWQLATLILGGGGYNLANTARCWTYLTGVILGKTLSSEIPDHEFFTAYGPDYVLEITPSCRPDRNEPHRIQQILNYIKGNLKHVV
Description: Inhibition of human recombinant HDAC8 using RHKAcKAc as fluorogenic substrate incubated for 90 mins by fluorescence based analysis

[2] = Ratio of drug concentration in human blood to plasma; type: ADME, cell-free
Histone deacetylase 1 = Histone deacetylase 1 (Homo sapiens, UniProt Q13547)
Description: Inhibition of human recombinant HDAC1 using RHKKAc as fluorogenic substrate incubated for 90 mins by fluorescence based analysis

Histone deacetylase 11 = target: T3, Histone deacetylase 11 (Homo sapiens, UniProt Q96DB2)
T3 sequence (Q96DB2 whole entry): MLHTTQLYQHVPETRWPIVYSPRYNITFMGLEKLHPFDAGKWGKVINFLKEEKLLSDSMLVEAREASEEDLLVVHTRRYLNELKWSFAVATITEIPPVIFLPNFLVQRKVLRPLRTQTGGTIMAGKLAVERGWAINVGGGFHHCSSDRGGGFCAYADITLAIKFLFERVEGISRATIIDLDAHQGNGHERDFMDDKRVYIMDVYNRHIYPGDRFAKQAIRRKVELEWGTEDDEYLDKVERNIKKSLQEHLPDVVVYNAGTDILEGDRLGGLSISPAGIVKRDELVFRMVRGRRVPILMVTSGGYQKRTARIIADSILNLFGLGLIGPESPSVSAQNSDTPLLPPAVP

[3] = target: Histone deacetylase 3/Nuclear receptor corepressor 2 (HDAC3/NCoR2) (Homo sapiens, UniProt O15379); test: Inhibition of human recombinant Human HDAC3/NCOR2 using RHKKAc as fluorogenic substrate incubated for 90 mins by fluorescence based analysis; type: protein-complex assay
K562 = test: cells; type: functional, cell-based; settings: Homo sapiens, K562, 72 h
HPBALL = test: Antiproliferative activity against human HPBALL cells assessed as inhibition of cell growth incubated for 72 hrs by celltiter-glo assay; type: functional, cell-based
HL-60 = test: cells; settings: Homo sapiens, HL-60, 72 h
[4] = Tmax in Balb/c mouse at 50 mg/kg, po measured upto 6 hrs by LC-MS/MS analysis; type: ADME, organism-based; settings: in vivo
[5] = Metabolic stability in human liver microsomes assessed as half life measured upto 60 mins in presence of NADPH regenerating system LC-MS analysis
[6] = Half life in mouse at 50 mg/kg, po by LC/MS/MS analysis; settings: in vivo
[7] = AUClast in mouse at 50 mg/kg, po by LC/MS/MS analysis; settings: in vivo
in vivo = settings: Balb/c, mouse, po, 50 mg/kg
[8] = Half life in Balb/c mouse at 50 mg/kg, po measured upto 6 hrs by LC-MS/MS analysis; settings: in vivo

Chain of Histone deacetylase 4 (P56524 whole entry): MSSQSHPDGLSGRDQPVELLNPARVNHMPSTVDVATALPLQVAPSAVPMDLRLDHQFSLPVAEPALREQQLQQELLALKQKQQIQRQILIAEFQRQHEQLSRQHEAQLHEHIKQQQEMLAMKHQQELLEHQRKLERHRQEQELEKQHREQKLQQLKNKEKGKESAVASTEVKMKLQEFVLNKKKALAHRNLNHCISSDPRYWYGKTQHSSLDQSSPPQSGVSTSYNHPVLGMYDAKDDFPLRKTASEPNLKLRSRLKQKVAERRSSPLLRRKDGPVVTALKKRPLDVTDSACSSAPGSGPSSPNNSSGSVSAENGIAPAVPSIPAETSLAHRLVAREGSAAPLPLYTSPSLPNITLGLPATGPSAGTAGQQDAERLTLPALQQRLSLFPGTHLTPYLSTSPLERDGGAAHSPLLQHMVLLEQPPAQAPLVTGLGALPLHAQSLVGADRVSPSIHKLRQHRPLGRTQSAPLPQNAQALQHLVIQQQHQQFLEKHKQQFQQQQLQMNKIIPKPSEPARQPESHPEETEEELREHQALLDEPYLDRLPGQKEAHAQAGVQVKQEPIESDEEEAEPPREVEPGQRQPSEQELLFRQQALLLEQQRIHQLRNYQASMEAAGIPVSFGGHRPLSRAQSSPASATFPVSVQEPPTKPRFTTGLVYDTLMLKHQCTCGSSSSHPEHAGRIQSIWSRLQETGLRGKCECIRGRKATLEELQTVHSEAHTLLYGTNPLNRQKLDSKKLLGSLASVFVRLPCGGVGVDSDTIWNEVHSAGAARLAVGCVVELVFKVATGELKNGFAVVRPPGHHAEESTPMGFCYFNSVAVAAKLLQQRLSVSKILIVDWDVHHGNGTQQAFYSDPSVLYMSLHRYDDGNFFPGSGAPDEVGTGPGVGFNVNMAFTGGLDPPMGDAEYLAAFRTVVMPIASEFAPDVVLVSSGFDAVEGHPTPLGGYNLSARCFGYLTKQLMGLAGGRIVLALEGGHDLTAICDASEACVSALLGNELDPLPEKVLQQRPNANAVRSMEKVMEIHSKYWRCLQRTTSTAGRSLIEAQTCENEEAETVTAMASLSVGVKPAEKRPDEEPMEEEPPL
Chain of Histone deacetylase 3/Nuclear receptor corepressor 2 (HDAC3/NCoR2) (O15379 whole entry): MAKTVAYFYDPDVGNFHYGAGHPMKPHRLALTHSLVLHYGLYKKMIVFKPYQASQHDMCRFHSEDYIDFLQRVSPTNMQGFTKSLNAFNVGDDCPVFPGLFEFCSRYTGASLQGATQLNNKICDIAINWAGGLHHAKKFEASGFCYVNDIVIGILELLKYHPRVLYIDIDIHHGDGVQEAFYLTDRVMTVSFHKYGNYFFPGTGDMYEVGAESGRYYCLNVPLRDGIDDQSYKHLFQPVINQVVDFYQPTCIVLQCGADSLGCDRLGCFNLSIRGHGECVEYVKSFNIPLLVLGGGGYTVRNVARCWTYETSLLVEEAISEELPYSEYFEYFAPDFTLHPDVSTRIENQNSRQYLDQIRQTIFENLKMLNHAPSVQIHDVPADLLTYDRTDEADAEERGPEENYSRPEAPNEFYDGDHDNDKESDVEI
Chain of Histone deacetylase 3/Nuclear receptor corepressor 2 (HDAC3/NCoR2) (Q9Y618 whole entry, further chain): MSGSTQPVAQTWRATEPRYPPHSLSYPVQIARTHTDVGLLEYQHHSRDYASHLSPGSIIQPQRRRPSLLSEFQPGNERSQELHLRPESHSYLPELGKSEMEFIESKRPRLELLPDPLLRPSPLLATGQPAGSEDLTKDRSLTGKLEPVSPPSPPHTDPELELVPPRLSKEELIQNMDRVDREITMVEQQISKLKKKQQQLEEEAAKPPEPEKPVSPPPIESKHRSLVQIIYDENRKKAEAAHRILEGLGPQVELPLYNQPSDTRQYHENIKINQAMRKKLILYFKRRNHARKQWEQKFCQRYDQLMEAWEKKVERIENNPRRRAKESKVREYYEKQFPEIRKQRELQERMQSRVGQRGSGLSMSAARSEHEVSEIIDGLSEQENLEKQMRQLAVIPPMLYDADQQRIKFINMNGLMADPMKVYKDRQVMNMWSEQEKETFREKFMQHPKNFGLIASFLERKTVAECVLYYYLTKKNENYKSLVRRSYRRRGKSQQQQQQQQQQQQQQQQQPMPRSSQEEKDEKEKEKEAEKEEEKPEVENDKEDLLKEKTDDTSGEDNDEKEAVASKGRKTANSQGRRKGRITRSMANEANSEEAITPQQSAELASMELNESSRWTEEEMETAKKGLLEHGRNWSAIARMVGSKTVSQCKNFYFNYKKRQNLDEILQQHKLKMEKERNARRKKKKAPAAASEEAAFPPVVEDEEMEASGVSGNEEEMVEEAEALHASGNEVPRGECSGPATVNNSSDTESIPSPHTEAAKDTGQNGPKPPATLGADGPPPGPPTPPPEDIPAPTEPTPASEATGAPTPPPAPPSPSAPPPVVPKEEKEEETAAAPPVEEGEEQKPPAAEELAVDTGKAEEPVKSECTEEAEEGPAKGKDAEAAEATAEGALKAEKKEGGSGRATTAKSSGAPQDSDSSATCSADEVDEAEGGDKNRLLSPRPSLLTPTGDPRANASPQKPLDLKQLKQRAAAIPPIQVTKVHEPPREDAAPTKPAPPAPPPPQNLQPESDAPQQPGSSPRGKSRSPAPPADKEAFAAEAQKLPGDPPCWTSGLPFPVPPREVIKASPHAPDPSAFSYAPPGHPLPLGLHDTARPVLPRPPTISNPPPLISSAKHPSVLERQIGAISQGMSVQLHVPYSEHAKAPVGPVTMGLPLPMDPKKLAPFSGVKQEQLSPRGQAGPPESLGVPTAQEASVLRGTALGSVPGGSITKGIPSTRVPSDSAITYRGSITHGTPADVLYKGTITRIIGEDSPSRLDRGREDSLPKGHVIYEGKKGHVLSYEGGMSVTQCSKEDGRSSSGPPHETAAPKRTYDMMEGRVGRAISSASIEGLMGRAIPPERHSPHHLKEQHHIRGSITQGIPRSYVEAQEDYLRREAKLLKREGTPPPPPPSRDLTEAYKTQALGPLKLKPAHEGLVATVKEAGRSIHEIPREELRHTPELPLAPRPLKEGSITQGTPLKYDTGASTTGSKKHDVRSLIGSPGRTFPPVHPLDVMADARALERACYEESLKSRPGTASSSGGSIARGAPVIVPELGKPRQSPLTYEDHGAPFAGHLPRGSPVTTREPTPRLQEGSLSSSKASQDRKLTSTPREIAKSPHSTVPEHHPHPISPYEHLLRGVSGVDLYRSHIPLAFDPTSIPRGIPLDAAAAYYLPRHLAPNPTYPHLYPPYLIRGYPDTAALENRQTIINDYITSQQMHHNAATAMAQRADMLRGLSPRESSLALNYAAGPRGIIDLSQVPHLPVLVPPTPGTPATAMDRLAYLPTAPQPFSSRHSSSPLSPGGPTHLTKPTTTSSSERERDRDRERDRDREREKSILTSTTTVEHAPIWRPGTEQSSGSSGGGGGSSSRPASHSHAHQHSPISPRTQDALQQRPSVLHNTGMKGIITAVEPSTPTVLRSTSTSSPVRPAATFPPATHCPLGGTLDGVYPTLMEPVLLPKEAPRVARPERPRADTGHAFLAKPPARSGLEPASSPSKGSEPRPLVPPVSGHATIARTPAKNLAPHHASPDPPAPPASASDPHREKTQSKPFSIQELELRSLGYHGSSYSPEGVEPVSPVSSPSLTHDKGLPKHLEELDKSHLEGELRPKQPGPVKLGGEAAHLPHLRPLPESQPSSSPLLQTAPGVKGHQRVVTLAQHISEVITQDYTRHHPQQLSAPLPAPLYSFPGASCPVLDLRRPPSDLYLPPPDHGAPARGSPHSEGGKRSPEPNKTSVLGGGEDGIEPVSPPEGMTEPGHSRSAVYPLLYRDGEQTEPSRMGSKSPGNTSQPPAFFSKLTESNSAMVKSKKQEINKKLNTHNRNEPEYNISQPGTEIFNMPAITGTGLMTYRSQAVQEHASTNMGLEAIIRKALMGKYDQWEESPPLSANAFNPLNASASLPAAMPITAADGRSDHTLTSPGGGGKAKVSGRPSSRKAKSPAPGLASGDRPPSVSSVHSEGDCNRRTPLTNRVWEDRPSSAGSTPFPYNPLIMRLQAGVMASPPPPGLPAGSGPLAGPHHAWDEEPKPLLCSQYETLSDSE
Chain of Histone deacetylase 1 (Q13547 whole entry): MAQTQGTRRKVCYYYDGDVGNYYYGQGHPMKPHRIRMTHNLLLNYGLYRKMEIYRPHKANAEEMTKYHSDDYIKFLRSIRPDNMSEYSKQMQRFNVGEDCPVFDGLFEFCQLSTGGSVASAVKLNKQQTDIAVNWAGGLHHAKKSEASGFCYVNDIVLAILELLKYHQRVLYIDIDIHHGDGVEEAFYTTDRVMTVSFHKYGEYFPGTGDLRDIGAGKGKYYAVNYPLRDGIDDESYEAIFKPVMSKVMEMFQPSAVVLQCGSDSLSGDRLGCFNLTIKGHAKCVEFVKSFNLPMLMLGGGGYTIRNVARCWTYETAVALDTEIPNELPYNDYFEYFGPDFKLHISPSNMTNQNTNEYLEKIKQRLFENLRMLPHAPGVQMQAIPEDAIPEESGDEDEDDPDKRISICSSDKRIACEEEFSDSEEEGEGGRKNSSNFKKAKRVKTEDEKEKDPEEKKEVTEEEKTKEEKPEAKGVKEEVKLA

Structure (SMILES) | IC50 [1] [nM] | IC50 (Histone deacetylase 4) [nM] | IC50 (Histone deacetylase 8) [nM] | further results
COc1ccccc1OCCNCC(O)COc1cccc2[nH]c3ccccc3c12 (configuration not stated) [CARVEDILOL] |  |  |  | blood plasma ratio [2]: 0.76
COc1ccc(-c2csc(C(=O)NOCCCCCC(=O)NO)n2)cc1 | 38 | > 100000 | 5750 | IC50 (Histone deacetylase 1): 40 nM; IC50 (Histone deacetylase 11): 26000 nM; IC50 [3]: 13 nM
CC(=O)Nc1ccc(C(=O)Nc2ccccc2N)cc1 [TACEDINALINE] |  |  |  | IC50 (K562): 5330 nM; IC50 (HPBALL): 4700 nM; IC50 (HL-60): 1580 nM
O=C(CCCCCONC(=O)c1nc(-c2ccsc2)cs1)NO | 49 | > 100000 | 5410 | 
O=C(/C=C/c1cccc(S(=O)(=O)Nc2ccccc2)c1)NO [BELINOSTAT] |  |  |  | IC50 (K562): 218 nM; IC50 (HPBALL): 269 nM; IC50 (HL-60): 158 nM
O=C(CCCCCCC(=O)Nc1ccccc1)NO [VORINOSTAT] |  |  |  | Tmax [4]: 4.8 min; half-life at 1 h [5]: 35.9 min; half-life [6]: 45 min; IC50 (HPBALL): 824 nM; AUC(0-t) [7]: 619 ng·h/mL; AUC(0-t) at 6 h (in vivo): 347 ng·h/mL; half-life at 6 h [8]: 48 min
O=C(CCCCCONC(=O)c1nc(-c2ccc(N3CCCC3)cc2)cs1)NO | 64 | > 100000 | 4800 | IC50 (Histone deacetylase 1): 12 nM; IC50 (Histone deacetylase 11): 36000 nM; IC50 [3]: 48 nM
O=C(CCCCCONC(=O)c1nc(-c2ccc(C(F)(F)F)cc2)cs1)NO | 108 | > 100000 | 4860 | 
O=C(CCCCCCNC(=O)c1cnc(N(c2ccccc2)c2ccccc2)nc1)NO [RICOLINOSTAT] |  |  |  | IC50 (K562): 2930 nM; IC50 (HPBALL): 2580 nM; IC50 (HL-60): 2190 nM

The next lines start with results.

IC50 [1] [nM] | IC50 (Histone deacetylase 4) [nM] | IC50 (Histone deacetylase 8) [nM] | Structure (SMILES) | further results
64 | > 100000 | 7010 | Cc1ccc(-c2csc(C(=O)NOCCCCCC(=O)NO)n2)cc1 | 
26 | > 100000 | 5200 | COc1cccc(-c2csc(C(=O)NOCCCCCC(=O)NO)n2)c1 | 
45 | > 100000 | 6380 | O=C(CCCCCONC(=O)c1nc(-c2ccc(F)cc2)cs1)NO | 
81 | > 100000 | 2510 | O=C(CCCCCONC(=O)c1nc(-c2cccs2)cs1)NO | 
26 | > 100000 | 2160 | COc1ccccc1-c1csc(C(=O)NOCCCCCC(=O)NO)n1 | 
47 | > 100000 | 2320 | O=C(CCCCCONC(=O)c1nc(-c2cccc(F)c2)cs1)NO | 
75 | > 100000 | 4010 | O=C(CCCCCONC(=O)c1nc(-c2ccccc2)cs1)NO | 
30 | > 100000 | 3680 | O=C(CCCCCONC(=O)c1nc(-c2cc3ccccc3o2)cs1)NO | 
51 | > 100000 | 1290 | O=C(CCCCCONC(=O)c1nc(-c2ccccc2F)cs1)NO | 
